Structures are written as SMILES.

For orientation: log P means the decadic logarithm of the partition coefficient of the neutral form, usually between octanol and water. Low readings indicate a more hydrophilic compound, high ones a more lipophilic compound. As a reminder, the logP is a log measure of how a compound divides between an organic and an aqueous phase. Low values mean a more hydrophilic compound, high ones a more lipophilic compound.

One series can be described thus: log P. The format is physicochemical.
Settings: not given
From the text: The term “log P” refers to the partition coefficient of a compound. The partition coefficient is the ratio of concentrations of un-ionized compound in each of two solution phases, for example, octanol and water. To measure the partition coefficient of ionizable solute compounds, the pH of the aqueous phase is adjusted such that the predominant form of the compound is un-ionized. The logarithm of the ratio of concentrations of the un-ionized solute compound in the solvents is called log P. The log P is a measure of lipophilicity. For example, log Poct/wat=log([solute]octanol/[solute]un-ionized,water).
Combined Results for particular compounds described herein, with respect to log P, membrane trafficking (uM), sigma-2 receptor affinity, sigma-1 receptor affinity microsomal stability in mouse liver microsomes (MLM) (t1/2, min), t1/2 normalized to CT)10914 and in vitro toxicity potassium channel hERG (IC50, nM) are provided in Table 1: […]
Turning to `CC(C)=CC(NCC1CCOCC1)C(C)(C)Oc1ccc(Cl)cc1` (centres unmarked) [Compound 165], the lipophilicity (log P) is given as 4.6. Still for that read-out and setting: to `CC(C)=CC(CC(C)(C)c1ccc(S(C)(=O)=O)cc1)NCC1CCOCC1` (centres unmarked) [Compound 88] belongs 3.54; to `COc1cc(CCC(C)(C)N2Cc3cccc(C(=O)N4CCN(C(=O)[C@@H]5CCCN5C)CC4)c3C2)ccc1O` [Compound 274], 3.24. `CCOC(=O)C1CCN(CCC(C)(C)c2ccccc2)CC1` [Compound 299]: the lipophilicity (log P) amounted to 3.81. With `COC(=O)C1CCCN1CCC(C)(C)c1ccc(F)cc1` (centres unmarked) [Compound 320], the “log P” value amounted to 3.62.

Regarding `COCCCC1CCN(C(C=C(C)C)COc2ccc(F)cc2)CC1` (centres unmarked) [Compound 190], the “log P” value worked out at 4.63. Still for that read-out and setting: as for `CC1(O)CCN(CCC(C)(C)c2ccccc2)CC1` [Compound 296], the figure is 2.83; as for `COCCCC1CCN(C(C=C(C)C)CC(C)(C)c2ccc(OC(C)C)cc2)CC1` (centres unmarked) [Compound 171], 6.5; as for `CC(C)=CC(CC(C)(C)c1ccc(F)cc1)N1CCN(S(=O)(=O)N(C)C)CC1` (centres unmarked) [Compound 195], 3.36. Same read-out and setting: to `CC(C)=CC(CC(C)(C)c1ccc(F)cc1)N1CCN(S(C)(=O)=O)CC1` (centres unmarked) [Compound 154] belongs 3.37; to `CCOC(=O)N1CCN(C(C=C(C)C)CC(C)(C)c2ccc(C(F)(F)F)cc2)CC1` (centres unmarked) [Compound 208], 5.58; to `CCCCC1(OC(=O)NC(C)C)CCN(C(C=C(C)C)CC(C)(C)c2ccc(C(F)(F)F)cc2)CC1` (centres unmarked) [Compound 216], 7.65. The same measure, in the same setting: as for `COc1ccc(C(C)(C)CC(c2ccccc2)N2CCOCC2)cc1` (centres unmarked) [Compound 118], the figure is 4.64. In the case of `COC[C@@H]1CCCN1C(C)CC(C)(C)c1ccc(C(F)(F)F)cc1` (some centres unmarked) [Compound 276], the “log P” value is on record as 4.95. Same read-out and setting: as for `CC(C)=CC(CC(C)(C)c1ccc(OC(C)C)cc1)N1CCC(O)CC1` (centres unmarked) [Compound 178], the figure is 4.59. For the molecule `COC(=O)N1CCN(C(=O)c2cccc3c2CN(C(C)(C)CCc2ccc(O)c(OC)c2)C3)CC1` [Compound 272], the lipophilicity (log P) was 3.35. As to `CC(C)=CC(CC(C)(C)c1ccc(Cl)cc1)N1CCN(C(=O)c2ccccc2)CC1` (centres unmarked) [Compound 157], the “log P” value is 6.19.

On to `COC[C@H]1CCCN1CCC(C)(C)c1ccc(F)cc1` [Compound 318], for which the “log P” value came out at 3.8. The same measure, in the same setting: to `COC[C@H]1CCCN1CCC(C)(C)c1ccc(Cl)cc1` [Compound 298] belongs 4.26. Regarding `COC1CCN(CCC(C)(C)c2ccccc2)CC1` [Compound 310], the “log P” value is recorded as 3.2. For `CCOC(=O)C1CCN(C(C=C(C)C)CC(C)(C)c2ccccc2)CC1` (centres unmarked) [Compound 278], the lipophilicity (log P) was determined as 5.23. Same read-out and setting: as for `COC(=O)[C@H]1CCCN1CCC(C)(C)c1ccccc1` [Compound 294], the figure is 3.48; as for `COC[C@H]1CCCN1CCC(C)(C)c1ccc(C(F)(F)F)cc1` [Compound 312], 4.53; as for `CC(C)=CC(CC(C)(C)c1ccccc1)N1CCC(O)(c2ccccc2)CC1` (centres unmarked) [Compound 220], 5.62. On to `CC(C)=CC(CC(C)(C)c1ccccc1)N1CCC(C2CCOCC2)CC1` (centres unmarked) [Compound 204], for which the lipophilicity (log P) was 5.7.

`COC1CN(C(C=C(C)C)CC(C)(C)c2ccc(Cl)cc2)C1` (centres unmarked) [Compound 167]: the “log P” value was found to be 5.1. On to `CC(C)=C[C@H](CC(C)(C)c1ccc(Cl)cc1)N1CCC[C@@H]1CO` [Compound 240], for which the “log P” value came to 5.04. Consider `CCCCC1(O)CCN(C(C=C(C)C)CC(C)(C)c2ccc(F)cc2)CC1` (centres unmarked) [Compound 222], for which the “log P” value was determined as 5.81. Turning to `CCOC(=O)C1CCN(C(C)CC(C)(C)c2ccc(C(F)(F)F)cc2)CC1` (centres unmarked) [Compound 277], the “log P” value came out at 5.11.

For the molecule `COC[C@H]1CCCN1C(C=C(C)C)CC(C)(C)c1ccc(F)cc1` (some centres unmarked) [Compound 251], the lipophilicity (log P) is on record as 5.22. Same read-out and setting: as for `CC(C)=CC(CC(C)(C)c1ccc(S(C)(=O)=O)cc1)N1CCC(C(C)C)CC1` (centres unmarked) [Compound 89], the figure is 5.37; as for `COc1ccc(C(C)(C)CC(c2ccccc2)N2CCC(C3CCOCC3)CC2)cc1` (centres unmarked) [Compound 122], 5.91.

`CC(C)=C[C@@H](CC(C)(C)c1ccc(F)cc1)N1CCC[C@@H]1CO` [Compound 241]: the “log P” value stood at 4.57. Still for that read-out and setting: as for `COCCOCCC1CCN([C@@H](C=C(C)C)CC(C)(C)c2ccc(C(F)(F)F)cc2)CC1` [Compound 264], the figure is 6.28. Turning to `COCCCC1CCN(CCC(C)(C)c2ccccc2)CC1` [Compound 325], the lipophilicity (log P) stood at 4.47. On the same count and under the same terms, as for `COCCOCCC1CCN(CCC(C)(C)c2ccc(C(F)(F)F)cc2)CC1` [Compound 314], the figure is 4.85; as for `COCCNC(C=C(C)C)C(C)(C)Oc1ccc(F)cc1` (centres unmarked) [Compound 174], 3.67. Same read-out and setting: as for `CC(C)=CC(CC(C)(C)c1ccccc1)N1CCNC(=O)C1` (centres unmarked) [Compound 227], the figure is 3.38. The same measure, in the same setting: to `CC(C)=CC(CC(C)(C)c1ccc(OC(C)(C)C)cc1)N1CCC(C)(O)CC1` (centres unmarked) [Compound 169] belongs 5.15. In the case of `COC(=O)C1CCN(CCC(C)(C)c2ccccc2)CC1` [Compound 295], the lipophilicity (log P) is 3.45. For the molecule `COC(=O)N1CCN(C(C=C(C)C)CC(C)(C)c2ccc(Cl)cc2)CC1` (centres unmarked) [Compound 197], the “log P” value came out at 4.95. Consider `COc1cc(CCC(C)(C)N2Cc3cccc(C(=O)N4CCN(C(=O)C(Cc5ccccc5)N(C)C)CC4)c3C2)ccc1O` (centres unmarked) [Compound 271], for which the log partition coefficient (log P) turned out to be 4.85.

Turning to `CC(C)(CCN1CCC(C2CCOCC2)CC1)c1ccc(Cl)cc1` [Compound 193], the “log P” value is on record as 4.89. Still for that read-out and setting: to `CC(C)=CC(CC(C)(C)c1ccc(C(F)(F)F)cc1)N1CCC(CCOC(C)C)CC1` (centres unmarked) [Compound 164] belongs 7.1; to `CC(C)=CC(CC(C)(C)c1ccc(N2CCOCC2)cc1)N1CCC2(CCOCC2)CC1` (centres unmarked) [Compound 147], 5.16; to `COc1cc(CCC(C)(C)N2Cc3cccc(C(=O)N4CCN(C(=O)CN)CC4)c3C2)ccc1O` [Compound 270], 1.81. On the same count and under the same terms, to `CC(C)=CC(CC(C)(C)c1ccc(F)cc1)N1CCC(O)(c2ccccc2)CC1` (centres unmarked) [Compound 221] belongs 5.76. The same measure, in the same setting: as for `CCOC(=O)C1CCN(CCC(C)(C)c2ccc(C(F)(F)F)cc2)CC1` [Compound 311], the figure is 4.69; as for `COC(=O)C1CCN(CCC(C)(C)c2ccc(F)cc2)CC1` [Compound 326], 3.6. As to `CC(C)(CC(c1ccccc1)N1CCCCC1)c1ccc(Cl)cc1` (centres unmarked) [Compound 117], the “log P” value is 6.47. On the same count and under the same terms, to `COC[C@@H]1CCCN1CCC(C)(C)c1ccc(F)cc1` [Compound 319] belongs 3.8; to `COCCOCCC1CCN(CCC(C)(C)c2ccc(Cl)cc2)CC1` [Compound 303], 4.58. With `CC(C)(CCN1CC[C@@H](O)C1)c1ccc(Cl)cc1` [Compound 288], the lipophilicity (log P) was 3.1. `CC(C)(CCN1CC[C@@H](O)C1)c1ccccc1` [Compound 301]: the lipophilicity (log P) is reported as 2.49.

As for `CC(C)=CC(NCC1CCOCC1)C(C)(C)Oc1ccccc1` (centres unmarked) [Compound 166], the “log P” value is listed as 3.99.

Consider `CCOC(=O)C1CCN(CCC(C)(C)c2ccc(Cl)cc2)CC1` [Compound 287], for which the “log P” value was found to be 4.41.

As to `CC(C)=CC(NCC(C)C)C(C)(C)Oc1ccccc1` (centres unmarked) [Compound 173], the “log P” value was 4.81.

For the molecule `COCCOCCC1CCN([C@H](C=C(C)C)CC(C)(C)c2ccc(C(F)(F)F)cc2)CC1` [Compound 263], the log partition coefficient (log P) is listed as 6.28. Still for that read-out and setting: to `COCCC1(O)CCN(C(C=C(C)C)CC(C)(C)c2ccccc2)CC1` (centres unmarked) [Compound 219] belongs 3.91; to `CC(C)=CC(CC(C)(C)c1ccc(Cl)cc1)N1CCNC(=O)C1` (centres unmarked) [Compound 224], 3.98; to `CC(C)=CC(CC(C)(C)c1ccc(N2CCOCC2)cc1)N1CCC(C)(O)CC1` (centres unmarked) [Compound 148], 4.14. Consider `COC(=O)C1CCN(CCC(C)(C)c2ccc(Cl)cc2)CC1` [Compound 291], for which the log partition coefficient (log P) was determined as 4.06. With `CC(C)=CC(CC(C)(C)c1ccc(Cl)cc1)N1CCN(C(=O)OC(C)(C)C)CC1` (centres unmarked) [Compound 194], the log partition coefficient (log P) is on record as 6.01.

`CC(C)=CC(CC(C)(C)c1ccc(Cl)cc1)N1CCC(O)(c2ccccc2)CC1` (centres unmarked) [Compound 211]: the lipophilicity (log P) is given as 6.23. Take `CC(C)=CC(CC(C)(C)c1ccc(OC(C)(C)C)cc1)N1CCC(O)CC1` (centres unmarked) [Compound 170]: the “log P” value turned out to be 4.87. Still for that read-out and setting: to `COC[C@H]1CCCN1[C@H](C=C(C)C)CC(C)(C)c1ccc(Cl)cc1` [Compound 235] belongs 5.68; to `COc1ccc(C(C)(C)CC(c2ccccc2)N2CCCCC2)cc1` (centres unmarked) [Compound 116], 5.71; to `CC(C)(CCN1CCC(CCO)CC1)c1ccccc1` [Compound 304], 3.38. For the molecule `CCOC(=O)C1CCN(C(C=C(C)C)CC(C)(C)c2ccc(C(F)(F)F)cc2)CC1` (centres unmarked) [Compound 286], the lipophilicity (log P) stood at 6.11.

On to `COc1cc(CCC(C)(C)N2Cc3cccc(C(=O)N4CCN(C(=O)[C@H](C)N)CC4)c3C2)ccc1O` [Compound 269], for which the lipophilicity (log P) is reported as 2.2. Take `COc1cc(CCC(C)(C)N2Cc3cccc(C(=O)N4CCN(C(=O)OCCOC(C)=O)CC4)c3C2)ccc1O` [Compound 305]: the “log P” value stood at 3.1.

Staying with this series, now noted: octanol/water.
For the molecule `CC(C)(CCN1CCC(CO)CC1)c1ccc(C(F)(F)F)cc1` [Example 306], the logP is 3.89. `CC(C)(CCN1CCC(O)(c2ccccc2)CC1)c1ccc(C(F)(F)F)cc1` [Example 307]: the logP stood at 5.08. Still for that read-out and setting: to `COC1CCN(CCC(C)(C)c2ccc(C(F)(F)F)cc2)CC1` [Example 191] belongs 4.07.

For the origin of these results see patent US11214540B2, “Compositions for treating neurodegenerative diseases” (COGNITION THERAPEUTICS, INC., priority 2017, dated 2022).
